Reference: ChEMBL document CHEMBL5316287 (J Med Chem, 2023)

Assays:
[1] = biological target: T1, Histone acetyltransferase p300 (Homo sapiens, UniProt Q09472); assay: Inhibition of EP300 in human LK2 cells assessed as reduction in intracellular H3K27 acetylation incubated for 3 hrs by chemiluminescence based ELISA; assay type: cell-based
[2] = Unbound AUC in BALB/cAnNCrlCrlj mouse at 10 mg/kg,po; assay type: ADME, organism-based; details: in vivo
[3] = Half life in BALB/cAnNCrlCrlj mouse at 10 mg/kg,po; assay type: ADME, organism-based; details: in vivo
[4] = Cmax in BALB/cAnNCrlCrlj mouse at 10 mg/kg,po; assay type: ADME, organism-based; parameters: dose 10 mg/kg, route po; details: in vivo
[5] = AUC in BALB/cAnNCrlCrlj mouse at 10 mg/kg,po; assay type: ADME, organism-based; parameters: dose 10 mg/kg, route po; details: in vivo
[6] = 1-Octanol/PBS partition coefficient, logD of the compound at pH 7.4 incubated for 30 mins by shake flask technique based HPLC-LC/MS analysis; assay type: physicochemical
[7] = Metabolic stability in mouse liver microsomes assessed as intrinsic clearance at 1 uM; assay type: ADME, Microsome
[8] = Metabolic stability in human liver microsomes assessed as intrinsic clearance at 1 uM; assay type: ADME, Microsome
[9] = biological target: T1, Histone acetyltransferase p300; assay: Inhibition of recombinant human full length EP300 assessed as inhibition of H4 peptide acetylation using biotinylated H4 peptide as substrate in presence of Acetyl-CoA incubated for 60 mins by TR-FRET assay
[10] = Volume of distribution at steady state in BALB/cAnNCrlCrlj mouse at 1 mg/kg,iv administered as DMA/Tween80/saline (1:1:8 ratio) solution; assay type: ADME, organism-based; details: in vivo, read-out: Vdss
[11] = Unbound clearance in BALB/cAnNCrlCrlj mouse at 1 mg/kg,iv administered as DMA/Tween80/saline (1:1:8 ratio) solution; assay type: ADME, organism-based; details: in vivo
[12] = Clearance in BALB/cAnNCrlCrlj mouse at 1 mg/kg,iv administered as DMA/Tween80/saline (1:1:8 ratio) solution; assay type: ADME, organism-based; details: in vivo
[13] = Oral bioavailability in BALB/cAnNCrlCrlj mouse at 10 mg/kg; assay type: ADME, organism-based; details: in vivo; for F: po, 10 mg/kg
[14] = Volume of distribution at steady state in BALB/cAnNCrlCrlj mouse at 1 mg/kg,iv administered as DMS0/10% SBE-7-betaCD (1:9 ratio) solution; assay type: ADME, organism-based; details: in vivo, read-out: Vdss
[15] = Unbound clearance in BALB/cAnNCrlCrlj mouse at 1 mg/kg,iv administered as DMS0/10% SBE-7-betaCD (1:9 ratio) solution; assay type: ADME, organism-based; details: in vivo
[16] = Unbound clearance in BALB/cAnNCrlCrlj mouse at 2 mg/kg,iv administered as DMA/Tween80/saline (1:1:8 ratio) solution; assay type: ADME, organism-based; details: in vivo
[17] = Volume of distribution at steady state in BALB/cAnNCrlCrlj mouse at 2 mg/kg,iv administered as DMA/Tween80/saline (1:1:8 ratio) solution; assay type: ADME, organism-based; details: in vivo, read-out: Vdss
[18] = BALB/cAnNCrlCrlj, read-out: AUC

T1 sequence (Q09472 whole entry): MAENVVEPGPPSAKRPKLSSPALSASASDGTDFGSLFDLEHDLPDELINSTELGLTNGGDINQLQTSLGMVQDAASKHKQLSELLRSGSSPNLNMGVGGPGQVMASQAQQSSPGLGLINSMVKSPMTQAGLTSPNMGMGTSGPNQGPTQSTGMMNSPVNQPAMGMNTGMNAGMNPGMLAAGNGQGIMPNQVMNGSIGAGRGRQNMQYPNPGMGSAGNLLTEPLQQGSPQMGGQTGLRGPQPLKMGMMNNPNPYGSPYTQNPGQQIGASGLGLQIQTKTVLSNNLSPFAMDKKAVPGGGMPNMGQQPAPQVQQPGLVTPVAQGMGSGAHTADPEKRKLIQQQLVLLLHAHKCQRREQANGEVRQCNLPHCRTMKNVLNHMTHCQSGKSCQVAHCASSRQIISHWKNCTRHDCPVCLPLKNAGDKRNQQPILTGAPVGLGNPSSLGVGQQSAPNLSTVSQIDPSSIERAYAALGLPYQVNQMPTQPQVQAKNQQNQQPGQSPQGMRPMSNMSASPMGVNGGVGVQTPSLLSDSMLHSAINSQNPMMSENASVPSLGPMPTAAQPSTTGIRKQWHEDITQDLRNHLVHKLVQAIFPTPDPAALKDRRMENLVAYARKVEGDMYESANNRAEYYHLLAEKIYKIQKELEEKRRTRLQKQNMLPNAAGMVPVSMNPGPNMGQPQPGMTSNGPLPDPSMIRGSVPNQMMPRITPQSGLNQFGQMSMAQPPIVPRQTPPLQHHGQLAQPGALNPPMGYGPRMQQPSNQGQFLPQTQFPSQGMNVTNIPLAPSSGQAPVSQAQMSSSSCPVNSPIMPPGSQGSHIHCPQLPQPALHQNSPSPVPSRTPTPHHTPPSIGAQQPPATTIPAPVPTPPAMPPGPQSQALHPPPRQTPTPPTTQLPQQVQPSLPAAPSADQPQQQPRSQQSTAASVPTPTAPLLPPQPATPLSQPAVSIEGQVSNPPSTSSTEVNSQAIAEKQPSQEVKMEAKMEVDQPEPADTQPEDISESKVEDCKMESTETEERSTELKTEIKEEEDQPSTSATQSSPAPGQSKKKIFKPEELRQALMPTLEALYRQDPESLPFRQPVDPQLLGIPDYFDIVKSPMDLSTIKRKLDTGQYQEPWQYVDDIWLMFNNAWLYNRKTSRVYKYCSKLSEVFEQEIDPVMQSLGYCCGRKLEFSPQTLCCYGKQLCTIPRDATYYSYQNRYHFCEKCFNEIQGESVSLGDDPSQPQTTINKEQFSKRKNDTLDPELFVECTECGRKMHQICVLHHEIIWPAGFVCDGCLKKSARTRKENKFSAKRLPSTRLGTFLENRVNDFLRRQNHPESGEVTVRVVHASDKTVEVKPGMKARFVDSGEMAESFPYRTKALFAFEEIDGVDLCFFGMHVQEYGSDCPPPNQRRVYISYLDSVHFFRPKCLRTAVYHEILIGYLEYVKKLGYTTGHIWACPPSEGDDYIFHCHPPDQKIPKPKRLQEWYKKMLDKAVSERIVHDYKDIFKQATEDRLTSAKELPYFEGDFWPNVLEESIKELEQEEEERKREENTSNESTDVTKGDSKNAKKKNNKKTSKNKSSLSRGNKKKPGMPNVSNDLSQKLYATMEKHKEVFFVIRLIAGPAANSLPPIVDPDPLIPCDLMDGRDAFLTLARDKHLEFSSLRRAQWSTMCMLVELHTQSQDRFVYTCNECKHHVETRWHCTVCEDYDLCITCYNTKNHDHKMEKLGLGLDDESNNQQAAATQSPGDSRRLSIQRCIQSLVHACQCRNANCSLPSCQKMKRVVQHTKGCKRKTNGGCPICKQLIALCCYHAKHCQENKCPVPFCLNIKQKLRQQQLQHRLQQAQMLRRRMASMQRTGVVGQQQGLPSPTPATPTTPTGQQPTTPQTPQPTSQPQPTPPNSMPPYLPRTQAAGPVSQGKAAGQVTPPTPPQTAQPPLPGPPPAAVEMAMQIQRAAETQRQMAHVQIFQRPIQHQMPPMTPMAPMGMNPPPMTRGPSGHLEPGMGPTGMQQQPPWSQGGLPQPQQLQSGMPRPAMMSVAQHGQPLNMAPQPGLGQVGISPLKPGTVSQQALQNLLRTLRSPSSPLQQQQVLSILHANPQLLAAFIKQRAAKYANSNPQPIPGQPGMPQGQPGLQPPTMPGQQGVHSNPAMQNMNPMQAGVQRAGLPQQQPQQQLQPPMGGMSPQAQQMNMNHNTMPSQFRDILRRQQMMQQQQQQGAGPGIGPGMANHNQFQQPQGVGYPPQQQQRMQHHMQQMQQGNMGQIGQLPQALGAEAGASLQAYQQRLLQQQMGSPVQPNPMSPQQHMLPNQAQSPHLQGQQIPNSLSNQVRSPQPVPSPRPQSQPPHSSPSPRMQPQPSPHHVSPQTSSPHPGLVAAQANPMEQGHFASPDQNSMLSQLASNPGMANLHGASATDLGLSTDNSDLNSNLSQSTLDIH

SMILES	IC50 [1] [nM]	half-life [3] [h]	Cmax [4] [nM]	logD at 0.5 h [6]	intrinsic clearance (CLint) [7] [µL/min/mg]	intrinsic clearance [8] [µL/min/mg]	further results
COc1ccc(C2(C(=O)N3C[C@H](F)C[C@@H]3C(=O)Nc3ccc4[nH]ncc4n3)CC(F)(F)C2)cc1	20	2.1	1610	2.1	120	40	fAUC [2]: 0.268 µM·h; AUC [5, 18]: 2.29 µM·h
COc1ccc(C2(C(=O)N3C[C@H](O)C[C@@H]3C(=O)Nc3ccc4[nH]ncc4n3)CCCCC2)cc1	106						IC50 [9]: 50 nM
COc1ccc(C2(C(=O)N3CCC[C@@H]3C(=O)Nc3ccc4[nH]ccc4c3)CCCC2)cc1	709						
O=C(Nc1ccc2[nH]ncc2n1)[C@H]1C[C@@H](F)CN1C(=O)C1(c2ccc(O)cc2)CCCCC1	13	2.8	340	2.7		140	AUC [5, 18]: 0.87 µM·h
COc1c(F)cc(C2(C(=O)N3C[C@H](F)C[C@@H]3C(=O)Nc3ccc4[nH]ncc4n3)CCC(F)(F)CC2)cc1F	142			3.2		60	
COc1ccc(C2(C(=O)N3C[C@H](F)C[C@@H]3C(=O)Nc3ccc4[nH]ncc4n3)CC(C)(C)C2)cc1	53			3.1	240	100	
CS(=O)(=O)c1ccc(C2(C(=O)N3C[C@H](F)C[C@@H]3C(=O)Nc3ccc4[nH]ncc4n3)CCC(F)(F)CC2)cc1	95	1.5	90	1.6			IC50 [9]: 55 nM; AUC [5, 18]: 0.23 µM·h
COc1ccc(C2(C(=O)N3C[C@H](F)C[C@@H]3C(=O)Nc3ccc4[nH]ncc4n3)CCCCC2)cc1F	16	1.2	12700	3.1	400	230	Vd [10]: 0.15 L/kg; CL free [11]: 76 mL/min/kg; fAUC [2]: 1.39 µM·h; clearance [12]: 6.3 mL/min/kg; bioavailability ([13]; BALB/cAnNCrlCrlj): 62%; AUC [5, 18]: 16.8 µM·h
COc1ccc(C2(C(=O)N3CCC[C@@H]3C(=O)Nc3ccc4[nH]ncc4n3)CCCC2)cc1	52						IC50 [9]: 24 nM
COc1ccc(C2(C(=O)N3C[C@H](F)C[C@@H]3C(=O)Nc3ccc4[nH]ncc4n3)CCCCC2)cc1		1.4	10800	3.1	770	310	fAUC [2]: 0.6 µM·h; Vd [14]: 0.29 L/kg; CL free [15]: 133 mL/min/kg; F [13]: 2.2%; AUC [5]: 15 µM·h
COc1ccc(C(C)(C)C(=O)N2C[C@H](F)C[C@@H]2C(=O)Nc2ccc3[nH]ncc3n2)cc1	77			1.9	380	10	

Continued, in another order:

IC50 [1] [nM]	half-life [3] [h]	Cmax [4] [nM]	logD at 0.5 h [6]	intrinsic clearance (CLint) [7] [µL/min/mg]	intrinsic clearance [8] [µL/min/mg]	SMILES	further results
916						COc1ccc(C2(C(=O)N3CCC[C@@H]3C(=O)Nc3ccc4[nH]ncc4c3)CCCC2)cc1	
	0.6	320				COc1ccc(C2(C(=O)N3CCC[C@@H]3C(=O)Nc3cccc4[nH]ncc34)CCCC2)cc1	fAUC [2]: 0.029 µM·h; AUC [5, 18]: 0.42 µM·h
15			2.3	160	110	COc1ccc(C2(C(=O)N3C[C@H](F)C[C@@H]3C(=O)Nc3ccc4[nH]ncc4n3)CCCCC2)cn1	
27						COc1ccc(C2(C(=O)N3CS(=O)(=O)C[C@@H]3C(=O)Nc3ccc4[nH]ncc4n3)CCCCC2)cc1	
57			3		40	COc1ccc(C2(C(=O)N3C[C@H](F)C[C@@H]3C(=O)Nc3ccc4[nH]ncc4n3)CCC(F)(F)CC2)cc1F	IC50 [9]: 36 nM
21			3.4	380	150	O=C(Nc1ccc2[nH]ncc2n1)[C@H]1C[C@@H](F)CN1C(=O)C1(c2ccc(C(=O)C(F)(F)F)cc2)CCCCC1	
101			1.6	50	10	COc1ccc(C2(C(=O)N3C[C@H](F)C[C@@H]3C(=O)Nc3ccc4[nH]ncc4n3)CCOCC2)cc1	
	2	80				COc1ccc(C2(C(=O)N3CCOCC(Cc4cccc5[nH]ncc45)C3)CCCC2)cc1 (stereo not given)	CL free [16]: 1740 mL/min/kg; fAUC [2]: 0.006 µM·h; Vd [17]: 1.76 L/kg; F [13]: 31%; AUC [5]: 0.1 µM·h
304						COc1ccc(C2(C(=O)N3CCC[C@@H]3C(=O)Nc3cccc4[nH]ccc34)CCCC2)cc1	
2790						COc1ccc(C2(C(=O)N3CCC[C@@H]3C(=O)Nc3ccc4cn[nH]c4c3)CCCC2)cc1	IC50 [9]: 500 nM
